What was measured:
HepG2-NTCP cells = assay: Cytotoxicity assay (Cell-titer-GLO Luminescent Cell Viability Assay); type: cell-based, human
Experimental: (§1) The IC50 of kinase inhibitors was determined using the Cell-titer-GLO Luminescent Cell Viability Assay kit (Promega, Madison, WI, USA) according to the recommendations from the manufacturer. Briefly, 10,000 HepG2-NTCP cells were seeded into a 96-well plate before treatment with various kinase inhibitor concentrations. Cell viability was assayed at 24 h post-treatment.

CDK2 = conditions: target CDK2; reported value, no reference given; cited from earlier work
CDK5 = conditions: target CDK5; reported value, no reference given; cited from earlier work
[1] = Cytotoxicity assay (Cell-titer-GLO Luminescent Cell Viability Assay); type: cell-based, human; conditions: human, HepG2-NTCP cells; HepG2-NTCP, cell viability 24 h post-treatment
Experimental: as §1

[2] = system: HBV infection in HepG2-NTCP cells; assay: HBV pgRNA level by real-time qPCR in kinase inhibitor treated HBV infected HepG2-NTCP; type: cell-based, Hepatitis B virus; conditions: for HBV pgRNA Fold change (Treated/DMSO) / effect on pgRNA level (in words): 1 µM; for effect on pgRNA level (in words): both four dpi and seven dpi
Excerpt: (§2) HBV were generated from a stable transfected hepablastoma cell line (Hep38.7) that expresses HBV as described previously. Briefly, Hep38.7 (tet-off) cells were induced to produce HBV particles through tetracycline withdrawal. Twelve days after tetracycline removal, culture media containing HBV were harvested and filtered through a 0.22 µm polyethersulfone (PES) membrane filter (Corning, New York, NY, USA). The virus supernatant was then concentrated using a heparin column and eluted with high salt, followed by overnight dialysis in phosphate-buffered saline (PBS). Real-time quantitative PCR was used to quantify the genome copy number of the HBV DNA. For infection, HepG2-NTCP cells at 70% confluence 1-day post-seeding were first treated with synchronisation medium consisting of complete medium with 3% DMSO and 500 µM L-Mimosin for 24 h. the cells were then incubated for 30 min with complete medium containing 800 µM of EGTA at 37 °C in a humidified 5% CO2 incubator. After the removal of EGTA-containing medium, the cells were infected with HBV at a multiplicity of infection (MOI) of 3000 in the presence of 4% PEG 8000 and 2.5% DMSO in DMEM/F12 medium supplemented with 2% FBS for 24 h. For the mock infection, cells were incubated for 24-hour in 4% PEG 8000, 2.5% DMSO in DMEM/F12 medium supplemented with 2% FBS. Upon virus removal followed by washing with PBS four times, HBV-infected cells were cultured in post-infection medium consisting of DMEM/F12 medium with 2% FBS and 1% DMSO. The post-infection medium was replaced at four days post-infection (dpi) and infected cells were harvested at day seven dpi. For phosphoproteome analysis, five biological replicates each of mock and HBV-infected HepG2-NTCP were used.
(§3) Total RNA was extracted using the RNeasy Mini Kit (Qiagen, Hilden, Germany) and digested with DNase according to the manufacturer’s protocol. For cDNA synthesis, 250–400 ng of total RNA was reverse transcribed with the iScript cDNA Synthesis Kit (Bio-Rad, Hercules, CA, USA) following the manufacturer’s protocol. cDNA was adjusted to 5 ng/µL using nuclease-free water and 2 μL of cDNA per reaction was used for qPCR analysis. Total DNA was extracted from the cells using the DNeasy Blood and Tissue Kit (Qiagen, Hilden, Germany) according to the manufacturer’s protocol.
To determine pgRNA level after HBV infection, HBV pgRNA was quantified by real-time qPCR using two HBV-specific primers: pgRNA-Forward, 5′-[…]-3′, and pgRNA-Reverse, 5′-[…]-3′ [49]. The housekeeping gene, GAPDH, was amplified using GAPDH forward primer 5′-[…]-3′ and GAPDH reverse primer 5′-[…]-3′. The relative fold change of pgRNA between conditions was determined using the ΔΔct method. Real-time qPCR was performed with iTaq Universal SYBR Green Supermix (Bio-Rad, Hercules, CA, USA). To determine the copy number of intracellular cccDNA, a probe-based qPCR approach was used. cccDNA was amplified using cccDNA forward primer 5′-[…]-3′ and cccDNA reverse primer 5′-[…]-3′. The Taqman probe 56, FAM/[…]/ZEN/[…]/3IABkFQ was used. The cccDNA copy number was determined using a standard curve approach with a 10× serial-diluted cccDNA template, starting from 10ng (Standard rang 1 fg to 1 ng). The reaction was carried out using the Luna Univeral Probe qPCR mix (NEB, Ipswich, MA, USA). To determine the level of HBeAg secretion, the HBeAg CLIA kit (Autobio diagnostic, Zhengzhou, China) was used. This assay was performed on 50 µL of medium harvested at four or seven dpi. All experiments were performed in triplicates and repeated twice for two additional biological replicates. The p-value was calculated using Student’s t-test (two-tailed, * p-value < 0.05, ** p-value < 0.01).
HBV infection on HepG2-NTCP was carried out as described earlier. At one dpi, the kinase inhibitors (Table 1) were added to the post-infection medium after the washing and removal of viruses containing infection medium. […]

[3] = system: HBV infection in HepG2-NTCP cells; assay: Intracellular cccDNA by probe-based qPCR in kinase inhibitor treated HBV infected HepG2-NTCP; type: cell-based; conditions: 1 µM
Excerpt: as §2
as §3, with “Total DNA was extracted from the cells using the DNeasy Blood and Tissue Kit (Qiagen, Hilden, Germany) according to the manufacturer’s protocol.” left out
To determine pgRNA level after HBV infection, HBV pgRNA was quantified by real-time qPCR using two HBV-specific primers: pgRNA-Forward, 5′-[…]-3′, and pgRNA-Reverse, 5′-[…]-3′ [49]. […] The relative fold change of pgRNA between conditions was determined using the ΔΔct method. […] The cccDNA copy number was determined using a standard curve approach with a 10× serial-diluted cccDNA template, starting from 10ng (Standard rang 1 fg to 1 ng). […] The p-value was calculated using Student’s t-test (two-tailed, * p-value < 0.05, ** p-value < 0.01). […]

[4] = system: HBV infection in HepG2-NTCP cells; assay: HBeAg secretion (HBeAg CLIA kit) in kinase inhibitor treated HBV infected HepG2-NTCP; type: cell-based; conditions: 1 µM
Excerpt: as §2
To determine pgRNA level after HBV infection, HBV pgRNA was quantified by real-time qPCR using two HBV-specific primers: pgRNA-Forward, 5′-[…]-3′, and pgRNA-Reverse, 5′-[…]-3′ [49]. The housekeeping gene, GAPDH, was amplified using GAPDH forward primer 5′-[…]-3′ and GAPDH reverse primer 5′-[…]-3′. The relative fold change of pgRNA between conditions was determined using the ΔΔct method. Real-time qPCR was performed with iTaq Universal SYBR Green Supermix (Bio-Rad, Hercules, CA, USA). To determine the copy number of intracellular cccDNA, a probe-based qPCR approach was used. cccDNA was amplified using cccDNA forward primer 5′-[…]-3′ and cccDNA reverse primer 5′-[…]-3′. The Taqman probe 56, FAM/[…]/ZEN/[…]/3IABkFQ was used. The cccDNA copy number was determined using a standard curve approach with a 10× serial-diluted cccDNA template, starting from 10ng (Standard rang 1 fg to 1 ng). […] The p-value was calculated using Student’s t-test (two-tailed, * p-value < 0.05, ** p-value < 0.01). […]

CLKs = conditions: target CLKs; reported value, no reference given; cited from earlier work
CDK1 = conditions: target CDK1; reported value, no reference given; cited from earlier work

Compound | IC50 (HepG2-NTCP cells) | HBV pgRNA Fold change (Treated/DMSO) ([2]; 4dpi) | HBV pgRNA Fold change (Treated/DMSO) ([2]; 7dpi) | effect on pgRNA level (in words) [2] | Intracellular cccDNA Fold change (Treated/DMSO) ([3]; 4dpi) | Intracellular cccDNA Fold change (Treated/DMSO) ([3]; 7dpi) | HBeAg Titer Fold change (Treated/DMSO) ([4]; 4dpi) | HBeAg Titer Fold change (Treated/DMSO) ([4]; 7dpi) | also measured
Nc1cc(Nc2ccc(S(N)(=O)=O)cc2)ncn1 [PNU112455A11] | > 500 µM |  |  |  |  |  |  |  | Ki (CDK2): 3.2 µM; Ki (CDK5): 3.6 µM
Cn1cc(-c2ccc3occ(-c4cccc(-c5ccncc5)c4)c3n2)cn1 [MU1210] |  | 0.406 | 0.709 | reduction in the pgRNA level | 0.678 | 0.479 | 0.415 | 0.105 | IC50 at 24 h [1]: 16.7 µM; Ki (CLKs): 0.023 µM
Cn1cc(-c2ccc3occ(-c4ccccc4-c4ccccc4)c3n2)cn1 [MU140] |  | 1.014 | 1.114 | no such reduction | 0.894 | 0.930 | 0.904 | 0.993 | 
CN(C)c1nc2c(Br)c(Br)c(Br)c(Br)c2[nH]1 [DMAT] | > 500 µM |  |  |  |  |  |  |  | effect on pgRNA transcription (in words) ([2]; 10 µM, both four and seven dpi): reduction of pgRNA transcription
O=C1NC(=NCc2cccs2)S/C1=C\c1ccc2ncccc2c1 [RO-3306] |  |  |  |  |  |  |  |  | Ki (CDK1): 0.035 µM

Reference: article PMC9104152, “Phosphoproteomics Unravel HBV Triggered Rewiring of Host Phosphosignaling Events” (International Journal of Molecular Sciences, 2022)
